# Laboratory results: EPA's ToxValDB 9.5 (doi:10.2903/j.efsa.2010.1337)
# System: not given
# Conditions: subchronic; duration: 90 days
row,Compound,NOAEL [mg/kg-day]
1,C1CCC(SSC2CCCCC2)CC1 [Dicyclohexyl disulfide],0.23

# System: Rattus norvegicus
# Conditions: chronic; duration: 2 years
row,Compound,NOEL [mg/kg-day]
1,C=O [Formaldehyde],15
2,SCS [Methanedithiol],15

# Same assay, conditions: chronic; duration: 91 days
row,Compound,NOEL [mg/kg-day]
1,"CCC1SSC(CC)S1 (stereo not drawn) [3,5-Diethyl-1,2,4-trithiolane]",1.9
2,"CC1SSC(C)S1 (stereo not drawn) [3,5-Dimethyl-1,2,4-trithiolane]",1.9

# Same assay, conditions: short-term; duration: 28 days
row,Compound,NOEL [mg/kg-day]
1,CC=O [Acetaldehyde],125
2,"CC(S)S [Ethane-1,1-dithiol]",125
3,C=CCSC[C@H](N)C(=O)O [S-Allylcysteine],250

# Same assay, conditions: subchronic; duration: 90 days
row,Compound,NOEL [mg/kg-day]
1,"CC1SCCSS1 (stereo not drawn) [1,2,4-Trithiane, 3-methyl-]",0.3
2,Cc1ccccc1S [2-Methylbenzenethiol],0.51
3,C=CCSSCCC [Allyl propyl disulfide],4.6
4,"CC(S)c1ccccc1 (stereo not drawn) [Benzenemethanethiol, .alpha.-methyl-]",0.43
5,"Cc1cccc(C)c1S [Benzenethiol, 2,6-dimethyl-]",0.43
6,"COc1ccccc1S [Benzenethiol, 2-methoxy-]",0.51
7,C=CCSSSCC=C [Diallyl trisulfide],4.6
8,CSCS [Methylthiomethylmercaptan],0.3

# Same assay, conditions: subchronic; duration: 90 days; oral
row,Compound,NOEL [mg/kg-day]
1,"CCC(S)SC(S)CC (stereo not drawn) [1,1'-Sulfanediyldi(propane-1-thiol)]",0.7
2,"CC(S)C(C)S (stereo not drawn) [2,3-Butanedithiol]",0.7
